Experimental data as given in US10925872B2, “Methods of treating cochlear synaptopathy” (PIPELINE THERAPEUTICS, INC., priority 2016, dated 2021).

Key:
DCC α-fragment [1] = experiment: DCC α-fragment Western blot, mouse ex vivo embryonic spinal cord; type: cell-based, CD-1 mice; settings: embryonic day 15 spinal cord segments, 1 μM, 24 h, normalized to actin
From the text: Previous reports have shown that DCC (deleted in colorectal cancer) is a γ-secretase substrate. DCC is the receptor for the guidance molecule, netrin, and its activation results in neuronal axon outgrowth, axon turning and synapse formation. Embryonic spinal cords of presenilin knockout mice treated display persistent expression of the DCC α-fragment; these fragments can enhance netrin-DCC mediated events, including axon outgrowth in cultured motor neurons (Taniguchi et al., 2003, J. Biol. Chem., 278:30425-30428, and Bai et al., 2011, Cell, 144(1): 106-18). The following studies were performed using GSM, “RO”, as well as the GSI, Compound I. RO has the structure:
Spinal cords from embryonic day 15 CD-1 mice were collected and cut into 1-2 mm segments and transferred to serum-free growth media (DMEM-F12, N2 and B27 serum supplements, penicillin/streptomycin) with 1 μM RO or 1 μM Compound I. Segments were cultured for 24 h (37° C., 5% CO2) then processed for Western blot. Membranes were probed with a DCC antibody recognizing the intracellular domain and bands were normalized to actin.

DCC α-fragment [2] = experiment: DCC α-fragment Western blot of cochlea after round window delivery in vivo; parameters: species or system CBA/J mice; settings: 2% in vehicle, 2 μl bilaterally to the round window, one week later
Procedure: Compound I (2% in vehicle, 2 μl) or vehicle (2 μl) was delivered bilaterally to the round window of CBA/J mice. One week later, cochlea were collected and processed for Western blot. Both cochlea from two animals were used to generate each data point. Cochlea were homogenized in 50 μL radioimmunoprecipitation assay buffer then allowed to lyse further at 4° C. for 1 h. Bone was spun out and 4× sample loading buffer added. Samples were run on a 4-15% TGX gradient gel (BioRad, Hercules, Calif.) and transferred to a nitrocellulose membrane and blocked with Odyssey Blocking Buffer (LI-COR, NE). Blots were probed with mouse DCC (BD Biosciences, San Jose, Calif.) at 1:500, and rabbit actin (loading control) antibodies (Li-Cor, NE) in blocking buffer containing 0.1% Tween-20. Membranes were washed with PBS/0.1% Tween then incubated in secondary antibody (goat anti-mouse IRDye 680LT and goat anti-rabbit IRDye 800LT, both from LI-COR, NE) diluted 1:10,000 in blocking buffer containing 0.1% Tween-20 and 0.01% SDS. Membranes were washed in PBS then imaged on a LiCor Odyssey Classic scanner and the DCC α-fragment quantified using ImageJ.

inner hair cell synapses = experiment: Mouse noise-induced cochlear synaptopathy, local GSI (synapse counts, ABR wave I); type: in vivo, CBA/J mice
Procedure: Two separate experiments were conducted using this protocol: in Experiment 1 (FIG. 7A) compound I treatment was compared to NT3, in Experiment 2 (FIG. 7B, 7C and FIG. 8) we evaluated two dose levels of compound I. For both experiments female CBA/J mice 6 weeks old (The Jackson Laboratory, Bar Harbor, Me.) were exposed, awake and unrestrained, to filtered octave band noise (8-16 kHz) for 2 hours at 98 dB SPL in a reverberant sound-exposure box. Mice were placed in a custom designed wire cage sitting atop high density 4-inch foam with the wire floor 1-inch above the foam. The noise waveform was generated and filtered with a TDT RZ6 pre-amplifier (Tucker Davis Technologies, Alachua, Fla.), amplified by a Crown XLS1000 power amplifier, and delivered by JBL 2426H Compression Driver coupled to a JBL 2730A horn. Sound levels were verified in the center of the cage using a ¼-inch condenser microphone (PCB Piezotronics, Depew, N.Y.) before each exposure. ABR was collected 1 and 14 days post-noise exposure to ensure a temporary threshold shift with no permanent threshold shift. Seventeen days after noise, mice were dosed bilaterally with crystalline Compound I, (2% in PF10*) or NT3 (2 μL of 150 ng/μL) (Experiment 1); crystalline Compound I (2% and 0.2% in PF10) (Experiment 2); and ABR was collected 14 days post-dose. Vehicle control animals received bilateral injections of PF10. Age matched naïve control animals were also used.
ABR Wave I analysis: The auditory brain-stem response (ABR) waveform comprises a set of waves (labeled I-V). Mice were anesthetized with ketamine and xylazine. ABR waveforms were collected using Tucker-Davis Technologies RZ6 Auditory Processor. The stimuli used were 5 ms tone (2 ms cos 2 rise-fall) at frequencies from 4, 8, 16, 24, and 32 kHz delivered in alternating polarity at 21/s. […] Wave I peak amplitudes were determined by extracting the raw waveform voltage averages and determining the window or latency at which the peak of wave I appears. […]

[3] = both 0.2% and 2% dosages in PF10, bilateral, 17 days after noise, 14 days post-dose

Structure (SMILES): C[C@H](OC(=O)NCC(F)(F)C(F)(F)F)C(=O)N[C@@H]1C(=O)Nc2ccccc2-c2ccccc21 [Compound I, (2,2,3,3,3-pentafluoropropyl)-carbamic acid (S)-1-((S)-6-oxo-6,7-dihydro-5H-dibenzo[b,d]azepin-7-ylcarbamoyl) ethyl ester]
- DCC α-fragment level compared to the vehicle group (DCC α-fragment [1]): Increase in α-fragment
- DCC α-fragment compared to vehicle alone (DCC α-fragment [2]): approximately two fold increase
- synapse recovery in the mid 1 region (16-24 kHz) (inner hair cell synapses; [3]): nearly complete synapse recovery
- synapse recovery in the mid 2 region (24-32 kHz) (inner hair cell synapses; [3]): nearly complete synapse recovery
- ABR wave I amplitudes (inner hair cell synapses; local administration following noise induced synaptopathy): improved wave I amplitudes
